Measured values as given in patent publication US8754121B2, “Use of deoxyelephantopin (DET) and analogues thereof for treatment of melanoma” (priority 2010, dated 2014).
Where two headings read alike, the source gives them in different places.

What was measured:
[1] = system: B16 melanoma cells; experiment: Cell cycle analysis by flow cytometry (sub-G1 fraction); type: cell-based, murine; conditions: 24 h, data not shown
Description: Both adherent and floating cells were collected, washed with PBS and fixed with 1 mL of ice-cold 70% ethanol overnight at 4° C.

[2] = system: B16 cells; experiment: Time-lapse cell motility assay; type: cell-based, murine; conditions: time-lapse videomicroscopy over 24 h, 3 μM DET, 40 μM CP, 3 μM DET plus 40 μM CP; for migration velocity of B16 cells: vehicle control 0.35±0.09; for migration distance of B16 cells: vehicle control 488.2±147.1
Description: Cell motility was assessed by time-lapse videomicroscopy. B16 cells were seeded in 6 cm dish for 3 h and maintained at constant temperature (37° C.) and 5% CO2 chamber throughout the experimental period. Cells were observed under an inverted microscope (Zeiss Axiovert 200M), and phase-contrast snap photographs (one frame every 30 min) were digitally recorded for 24 h. Cell paths were generated from centroid positions, and cell velocities of migration were analyzed using the tracking object of the Metamorph software (Molecular Device).

[3] = Primary metabolome of kidney tissues by UPLC/ESI-Q-TOF MS; type: in vivo, C57BL/6J mice
Description: Primary metabolome in the kidney tissues of test mice with various treatments were analyzed using UPLC-QTOF MS. Kidney samples (150 mg) were homogenized with 600 μL methanol and 127.5 μL distilled water. The homogenates were vigorously mixed with 1.2 mL chloroform:H2O solution (1:1, v/v) and then put at −20° C. for 20 min. After centrifugation at 13000×g for 10 min at 4° C., the supernatant (water layer) was collected, dried in a vacuum, and then reconstituted in 100 μL of 50% methanol for analysis.
LC-MS was performed with a LC system (ACQUITY UPLC, Waters, Millford, Mass.) coupled to a hybrid Q-TOF mass spectrometer (Synapt HDMS, Waters, Manchester, U.K.). The sample was separated online with a reverse-phase column (HSS T3 C18, 1.8 μm, 2.1 mm×150 mm, Waters, Milford, Mass.) which was kept in a column oven at 40° C. The mobile phases for positive ion mode consisted of 0.1% formic acid in 2% ACN (buffer A) and 0.1% formic acid in 100% ACN (buffer B). The mobile phases for negative ion mode consisted of pure H2O (buffer A) and pure 100% AcCN (buffer B).
The mass spectrometer equipped with lock electrospray ionization probe was operated in both positive and negative (ESI) modes. The electrospray voltage was set at 3 kV for positive ion mode and −2.5 kV for negative ion mode, and the cone voltage was 40V. The cone and desolvation gas flow were 50 and 700 L/h, respectively. A lock mass calibration of sulfadimethoxin (0.5 mg/L) in water/MeOH (50:50, v/v) was introduce by the HPLC pump (LC-10ATVP, Shimadzu, Japan) and split the 5 μL/min to the lockspray probe. The acquisition method was set to one full MS scan (50-990 m/z) with 0.2 sec scan time in centroid data mode.
The UPLC-MS data were analyzed using MarkerLynx XS version 4.1 SCN639 (Waters, Millford, Mass.). In this application, the peaks in the 0.5-4 min LC-MS data were detected and the noise reduced in both LC and MS domains. The extracted peak information was also processed to remove the peak-to-peak noise, deisotope and filter the MS peak with the intensity lower than 50 counts. A list of the intensities of the processed peaks for each of the LC-MS data was generated using retention time (RT) and m/z data pairs as the identifier of each peak. The processed data for each sample were combined and aligned for each of the RT-m/z pair to generate the final data table. The ion intensities for each peak were then normalized within each sample and the 3-dimensional data, peak identifier (RT-m/z pair), sample name, and ion intensity were analyzed by principle component analysis (PCA). Partial least-squares-discriminant analysis (PLS-DA), a supervised chemometric procedure, was used to define the maximum classification and separation of independent samples.

[4] = Histology, TUNEL and F4/80 immunostaining of kidney tissues
Description: (§1) Female C57BL/6J mice (National Laboratory Animal Center, Tainan, Taiwan) were given a standard laboratory diet and distilled water ad libitum and kept on a 12-h light/dark cycle at 22±2° C. In total, 63 mice were randomly divided and assigned into 7 groups. Female C57BL/6J mice received an intravenous (i.v) injection with 1×10^5 B16 cells in 200 μL PBS through the tail vein at Day 0. On Day 1, mice were divided into tumor group, CP2 group, DET10 group, DET10+CP1 group, and CP2→DET10 group. The mice were treated intraperitoneally (i.p.) every two days with 2 mg/kg body weight (BW) cisplatin (CP2), 10 mg/kg BW DET (DET10), DET10 mixed with 1 mg/kg BW cisplatin (DET10+CP1), and with CP2 five times and DET10 five times, then CP2 and DET10 taking turns every two days till the end of the experiments (CP2→DET10 group), respectively. The Pre-DET10 group mice were treated i.p with DET (10 mg/kg BW) every two days two weeks before (Day 14) tumor cells inoculation on Day 0, and continuously treated with DET10 till the end of the experiment. The tumor control mice were treated with vehicle DMSO. The mice in the sham control group were injected i.p. with 20 μL DMSO on Day 1 every 2 days throughout the experimental period.
Paraffin-embedded kidney tissues were prepared from three mice in each group on Day 21. The paraffin-embedded kidney was sectioned (4 μm) and underwent H&E staining. In situ apoptotic cells in kidney tissues were determined by TUNEL assay (Chemicon) and the mean proportions of positive TUNEL cells were measured using AxioVision software (Carl Zeiss MicroImaging, Inc.). Immunostaining of macrophage infiltration in the kidney tissues was performed using F4/80 antibody and visualized with goat anti-mouse Cy3-labeled secondary antibodies (Jackson ImmunoResearch), counterstained with DAPI (1 μg/mL).

[5] = system: lung metastasis of B16 melanoma (B16-COX-2/Luc cells); experiment: Inhibition of lung metastasis of B16 cells in syngeneic mice, in vivo bioluminescence imaging; design: species or system C57BL/6J mice; conditions: for mean bioluminescence intensity compared to tumor group (100%): Day 30; for remained bioluminescence intensity relative to tumor control group (100%): Day 21
Description: Stable B16 melanoma cell clone carrying COX-2 promoter driven-luciferase (pGL-COX-2/Luc) reporter gene plasmid was established. […] The B16-COX-2/Luc stable cell line was used in the mouse lung metastasis experiments.
After 10 minutes of incubation with luciferin, each mouse was placed in a right lateral decubitus position and a digital grayscale animal image was acquired using an IVIS spectrum (Xenogen Corp.). The acquisition and overlay of a pseudocolor image was taken, which represents the spatial distribution of detected photons emerging from active luciferase within the animals. Signal intensity was quantified using an IVIS Spectrum system (Xenogen Corp.) as the sum of all detected photons per second on Day 0, 7, 14, 18, 21, 23, 26 and 30 of treatment.

[6] = system: metastatic B16 melanoma tumors; experiment: Survival of mice carrying metastatic B16 melanoma; type: in vivo, C57BL/6J mice; conditions: tumor control 33 days
Description: All data were expressed as means±SD. For the survival data, the log-rank test was used to determine differences among tumor control, drug and compound treated groups. For other experiments, differences between treatments were determined by ANOVA. A P<0.05 is considered statistically significant.

[7] = for plasma BUN: groups CP2 and DET10+CP1
Description: as §1
The plasma BUN content, an indication of kidney function, was determined in test animals using QuantiChrom™ Urea Kit (BioAssay Systems).

[8] = system: B16 melanoma cells; experiment: MTT cell viability assay, B16 cell proliferation; type: cell-based, murine; conditions: 24 h, 37° C., read-out: IC50, inhibition of B16 cell proliferation
Description: Human melanocytes and murine B16 melanoma cells obtained from the American Type Culture Collection (ATCC®, MD) were grown overnight in a 10-mm petri-dish at 37° C. in MEM and RPMI medium 1640, respectively, supplemented with 10% heat-inactivated FBS, 100 units/mL penicillin, and 100 μg/mL streptomycin, in a humidified 5% CO2 incubator. Cell viability was measured by MTT-based colorimetric assay. The formula to calculate viable cell (%) is as follows: Cell viability (%)=(sample OD550/control OD550)×100% Synergism of DET and Cisplatin

[9] = Body weight of B16 tumor-bearing mice; type: in vivo, C57BL/6J mice; conditions: groups CP2 (cisplatin 2 mg/kg BW) and DET10+CP1, i.p. every two days; P<0.05
Description: Female C57BL/6J mice (National Laboratory Animal Center, Tainan, Taiwan) were given a standard laboratory diet and distilled water ad libitum and kept on a 12-h light/dark cycle at 22±2° C. In total, 63 mice were randomly divided and assigned into 7 groups. Female C57BL/6J mice received an intravenous (i.v) injection with 1×10^5 B16 cells in 200 μL PBS through the tail vein at Day 0. On Day 1, mice were divided into tumor group, CP2 group, DET10 group, DET10+CP1 group, and CP2→DET10 group. The mice were treated intraperitoneally (i.p.) every two days with 2 mg/kg body weight (BW) cisplatin (CP2), 10 mg/kg BW DET (DET10), DET10 mixed with 1 mg/kg BW cisplatin (DET10+CP1), and with CP2 five times and DET10 five times, then CP2 and DET10 taking turns every two days till the end of the experiments (CP2→DET10 group), respectively. The Pre-DET10 group mice were treated i.p with DET (10 mg/kg BW) every two days two weeks before (Day 14) tumor cells inoculation on Day 0, and continuously treated with DET10 till the end of the experiment. The tumor control mice were treated with vehicle DMSO. The mice in the sham control group were injected i.p. with 20 μL DMSO on Day 1 every 2 days throughout the experimental period. Tumor volumes were measured every 3 days and the body weight recorded once a week.

[10] = Day 21
Description: Female C57BL/6J mice (National Laboratory Animal Center, Tainan, Taiwan) were given a standard laboratory diet and distilled water ad libitum and kept on a 12-h light/dark cycle at 22±2° C. In total, 63 mice were randomly divided and assigned into 7 groups. Female C57BL/6J mice received an intravenous (i.v) injection with 1×10^5 B16 cells in 200 μL PBS through the tail vein at Day 0. On Day 1, mice were divided into tumor group, CP2 group, DET10 group, DET10+CP1 group, and CP2→DET10 group. The mice were treated intraperitoneally (i.p.) every two days with 2 mg/kg body weight (BW) cisplatin (CP2), 10 mg/kg BW DET (DET10), DET10 mixed with 1 mg/kg BW cisplatin (DET10+CP1), and with CP2 five times and DET10 five times, then CP2 and DET10 taking turns every two days till the end of the experiments (CP2→DET10 group), respectively. The Pre-DET10 group mice were treated i.p with DET (10 mg/kg BW) every two days two weeks before (Day 14) tumor cells inoculation on Day 0, and continuously treated with DET10 till the end of the experiment. The tumor control mice were treated with vehicle DMSO. The mice in the sham control group were injected i.p. with 20 μL DMSO on Day 1 every 2 days throughout the experimental period. […] On Day 21 post-tumor injection, three mice from each group were euthanized and blood collected for complete blood count (CBC) analysis.
Complete blood samples of test mice in each group on Day 21 were subjected to the analysis of white blood cell (WBC), neutrophil (N), monocyte (M), basophil (B) red blood cell (RBC), platelet (PLT), hemoglobin (Hb), and hematocrit (Ht) and other cell counts with a hemacytometer (FIG. 10).

[11] = system: B16 melanoma cells; experiment: Migration and invasion assay (trans-well); type: cell-based, murine; conditions: 24 h; for B16 melanoma cell invasion: Matrigel
Description: B16 cells (1×10^5 cells) were cultured in culture-inserts of boyden chamber (ibidi, Germany) for 12 h. The culture-inserts were removed and added DET or cisplatin alone or in combination for 24 h. B16 cells were added into a 24-transwell permeable plate (8.0 μm polycarbonate membrane, 6.5 mm insert; Corning Incorporated, Corning, N.Y.) coated with Matrigel basement membrane matrix. The bottom wells received 50 μL medium having the same concentration of serum as the top well, either 1% or 10% FBS. Cells were removed from the upper and lower sides of the filter after 24 h. The ratio of the counts obtained from the bottom versus total counts from both sides was used to determine migration and invasiveness. The invading cells remaining in the well were counted in six randomly chosen low-power fields at 100× original magnification by inverted fluorescence microscopy.

[12] = system: Human melanocytes; experiment: MTT cell viability assay, normal melanocytes; type: cell-based; conditions: 24 h
Description: Cell viability was measured by MTT-based colorimetric assay.

[13] = Day 21, groups CP2, DET10, DET10+CP1, CP2→DET10, i.p. every two days from Day 1
[14] = groups CP2, DET10, DET10+CP1, CP2→DET10, compared with control tumor-bearing group
[15] = i.p. every two days from Day 1, groups CP2 (cisplatin 2 mg/kg BW), DET10 (DET 10 mg/kg BW), DET10+CP1, CP2→DET10
[16] = i.p. every two days from Day 1, groups CP2, DET10, DET10+CP1, CP2→DET10
[17] = pre-DET and DET groups, assignment to group unclear
[18] = Pre-DET10 group: DET 10 mg/kg BW i.p. every two days from two weeks before tumor inoculation to end

N.N.[Cl][Pt][Cl] [CP, cis-diamminedichloroplatinum(II), reference compound]
sub-G1 (apoptotic) cell fraction [1]: 9% | migration velocity of B16 cells [2]: 0.26±0.14 μm/min | migration distance of B16 cells [2]: 376.6±100 μm | decrease in alanine, aspartate, phenylalanine, and tryptophan in kidney tissues, in comparison with the sham control ([3]; CP2 group): 1.7- to 2.4 fold | increase in pyruvate, citrulline, creatine, uric acid, hippuric acid, and 5-HIAA in kidney tissues, in comparison with the sham control ([3]; CP2 group): 1.6- to 12.5 fold | increase in 5-HIAA in kidney tissues ([3]; groups CP alone, DET+CP, CP→DET): 8.6 fold | H&E staining of kidney tissues ([4]; Day 21, CP2 group, cisplatin 2 mg/kg BW i.p. every two days): severe glomerular congestion and tubular epithelial atrophy | TUNEL-positive (apoptotic) cells in renal tissues [4, 13]: observed mostly | macrophage/monocyte infiltration in renal tissues (F4/80 immunostaining) [4, 14]: much significant | mean bioluminescence intensity compared to tumor group (100%) [5, 15]: 2% | median survival [6, 16]: 43 days | plasma BUN ([7]; Day 14, sham control 25.4±4.1): 61.1 ± 4.3 mg/dL | plasma BUN ([7]; Day 21, sham control 25.1±4.1): 67.3 ± 0.1 mg/dL | IC50 [8]: 45 µM | body weight of test mice [9]: significantly decreased | neutrophil population, times higher than the sham control ([10]; CP2 group): 3.5 times | neutrophil population, times higher than the tumor group ([10]; CP2 group): 2.55 times | effect on the peripheral blood cells profile (haematological toxicity) ([10]; groups CP2 and DET10): severe haematological toxicity | B16 melanoma cell migration [11]: inhibited | B16 melanoma cell invasion [11]: inhibited

C=C(C)C(=O)O[C@H]1CC2=C[C@@H](C/C(C)=C/[C@H]3OC(=O)C(=C)[C@H]13)OC2=O [DET, deoxyelephantopin]
sub-G1 (apoptotic) cell fraction [1]: 8.5% | migration velocity of B16 cells [2]: 0.16±0.06 μm/min | migration distance of B16 cells [2]: 224.1±85.9 μm | increase in carnitine in kidney tissues [3, 17]: 2.3 fold | increase in pyruvate in kidney tissues [3, 17]: 1.6 fold | increase in taurine in kidney tissues [3, 17]: 2.1 fold | TUNEL-positive (apoptotic) cells in renal tissues ([4]; Day 21, Pre-DET10 group, DET 10 mg/kg BW from two weeks before tumor inoculation): not detectable | TUNEL-positive (apoptotic) cells in renal tissues [4, 13]: not detectable | macrophage/monocyte infiltration in renal tissues (F4/80 immunostaining) ([4]; Pre-DET10 group): little or no detectable inflammatory cell infiltration | macrophage/monocyte infiltration in renal tissues (F4/80 immunostaining) [4, 14]: little or no detectable inflammatory cell infiltration | remained bioluminescence intensity relative to tumor control group (100%) [5, 18]: 15% | remained bioluminescence intensity relative to tumor control group (100%) [5, 15]: 49% | mean bioluminescence intensity compared to tumor group (100%) [5, 18]: 23% | mean bioluminescence intensity compared to tumor group (100%) [5, 15]: 45% | median survival ([6]; Pre-DET10 group: DET 10 mg/kg BW i.p. from two weeks before tumor inoculation): 43 days | median survival [6, 16]: 39 days | toxicity on normal human melanocytes [12]: little or no toxicity | change of BUN level compared to the sham control group ([7]; DET10 group, DET 10 mg/kg BW i.p. every two days from Day 1): little or no detectable changes | change of BUN level compared to the sham control group ([7]; Pre-DET10 group, DET 10 mg/kg BW from two weeks before tumor inoculation): little or no detectable changes | IC50 [8]: 4.5 µM | effect on the peripheral blood cells profile (haematological toxicity) ([10]; Pre-DET10 group): did not cause deleterious effect | effect on the peripheral blood cells profile (haematological toxicity) ([10]; groups CP2 and DET10): did not cause deleterious effect | levels of neutrophil (N) counts ([10]; groups DET10, DET10+CP1, CP2→DET10): Increase levels | B16 melanoma cell migration [11]: inhibited | B16 melanoma cell invasion [11]: inhibited
